No end group written: not given here. *: point of attachment. For = O=C*
What was measured:
KG1a cells [1] = test: Cell cycle assay, KG1a cells; type: cell-based, human; conditions: 72 h
Procedure: (§1) A panel of human myeloid leukemia cell lines (HL60, K562, KG1a, THP1 and U937) and HS-5 mesenchymal stromal cells lineage were cultured in Roswell Park Memorial Institute medium-1640 (RPMI; Sigma) containing 10% Fetal Bovine Serum (Gibco), glutamine (2 mM; Sigma), penicillin (100 μg/mL; Sigma), streptomycin (100 μg/mL; Sigma), and amphotericin B (0.25 μg/mL; Gibco). The cells were maintained in a humidified atmosphere at 37° C. and 5% CO2 and the experiments were performed when they reached exponential growth. For the assays, cells were seeded on a 24-well plate and treated or not with Foxy-5 for 72 hours.
(§2) Cells treated with Foxy or with vehicle were collected and fixed, at least, 24 hours in 70% ethanol. DNA was stained with a buffer containing iodide propidium (20 μg/mL; Sigma) and RNase A (10 μg/mL; Sigma). Cell fluorescence was detected with a FACSCalibur flow cytometer (BD). The proportions of cells in the cell cycle phases were analyzed by Modifit (Verify Software House Inc), according to DNA distributions.
(§3) As we observed a reduction in the leukemic proliferation after Foxy-5 treatment, we also analyzed the cell cycle phases. Leukemia cell lines were treated for 72 hours with Foxy-5, at doses of 50 μM and 100 μM, or vehicle, stained with the Piper buffer containing RNAse and iodeto propidium and then analyzed by flow cytometry.

K562 cells = test: Cell growth assay, K562 cells; type: cell-based, human; conditions: Foxy-5 100 μM, 72 h
Procedure: as §1
Cells treated with Foxy or with vehicle were collected and cell number was evaluated by manual counting in monoculture and by microscopy with Image J software analysis in 2D culture.
Next, we evaluated the proliferation rates since this process is modulated by ROS. We treated the cells with Foxy-5 (100 μM) or with vehicle (DMSO) during 72 hours, and then cell growth was analyzed by counting the cells in monoculture, manually, or by the Image J software analysis of the 2D cultures. […] Similar results were obtained in the 2D culture system using leukemia cells and HS-5 mesenchymal stromal cells.

[2] = NOD/SCID mice, U937 xenograft, Foxy-5 vs vehicle, after 9 days
Procedure: For the xenograft mouse model, a concentration of 40 μg/μL of Foxy-5 was used. […] Mice were anesthetized with isoflurane (4%) and U937 cells (5,000,000 cells/mouse) were inoculated in the mouse dorsal region by subcutaneous injection. When the tumours reached 100 mm^3, the treatment was initiated. Foxy-5 was administered once every 2 days by intraperitoneal injection. The control group received equal amounts of vehicle solution. The tumour volumes were measured every 2 days and evaluated according to the formula: tumour volume (mm^3) ¼ (length×width^2)/2. After 9 days, the mice were sacrificed, the tumour excised and tumour dimensions (tumour volume (mm^3) and tumour weight (grams, g)) were evaluated.

KG1a cells [3] = test: ROS production by flow cytometry, KG1a cells; type: cell-based, human; conditions: 72 h; for ROS production (MFI): 2D culture on HS5 stromal cells; for ROS production (mean fluorescence intensity): monoculture
Procedure: as §1
Cells treated with Foxy or with vehicle were collected and intracellular ROS generation was measured by flow cytometry following staining with DCFDA ([…]; Sigma). Acquisition of cells was performed on a FACScalibur flow cytometer (BD) and analysis was carried out using the FlowJo software.
Leukemia cell lines were treated for 72 h with Foxy-5, at doses of 50 and 100 μM, or vehicle, stained with DCFHA dye, and analyzed by flow cytometry.

HL60 cells = test: Autophagy assay (acridine orange), HL60 cells; type: cell-based, human; conditions: HL60, 2D culture, 72 h
Procedure: as §1
Cells treated with Foxy or with vehicle were collected and acids vesicles were measured by flow cytometry following staining with Acridine Orange (0.01 mg/mL; Sigma). Acquisition of cells was performed on a FACScalibur flow cytometer (BD) and analysis was carried out using the FlowJo software 4.
As autophagy is required for sustaining leukemia cell growth by induction of ROS production, we measured the levels of acidic granule formation by flow cytometry after Foxy-5 or vehicle treatment. […]

U937 cells [4] = test: Cell differentiation assay with PMA, U937 cells; type: cell-based, human; conditions: U937, PMA (200 nM), 72 hours, morphology by microscopy
Procedure: Cells were subjected to treatment with Foxy-5 or with vehicle, in the presence or absence of PMA (200 nM). After 72 hours, adherent cells were washed with PBS and their morphology was examined using a Zeiss Axi-oskope 2 Plus microscope (Carl Zeiss AG). The program ImageJ was used to assess differentiation.
PMA reagent is a typical inducer of AML cell differentiation through generation of ROS. As U937 leukemia cell lineage corresponds to a model of differentiated monocyte and/or macrophage following treatment with PMA, we examined the effects of Foxy-5 treatment on U937 differentiation-inducing PMA. Following treatment with PMA for 72 hours, cells were examined by microscopy to detect morphology. The majority of cells treated with vehicle and stimulated with PMA differentiated into macrophages and adhered to the plates.

U937 cells [5] = test: Cell cycle assay, U937 cells; type: cell-based, human; conditions: 72 h
Procedure: as §1, §2, §3

Foxy-5: Formylated hexapeptide fragment of WNT5A: MDGCEL (SEQ. ID. NO. 3) with methionine in position 1 as N-formyl methionine; WNT5A-mimicking compound (For-MDGCEL; listed as Homo sapiens)
cells in G0/G1 cell cycle phase (average) (KG1a cells [1]; co-cultured with HS5 stromal cells, Foxy-5 50 μM): 78.58% | cells in G0/G1 cell cycle phase (average) (KG1a cells [1]; co-cultured with HS5 stromal cells, Foxy-5 100 μM): 76.53% | cells in G0/G1 cell cycle phase (average) (KG1a cells [1]; monoculture, Foxy-5 50 μM): 69.95% | cells in G0/G1 cell cycle phase (average) (KG1a cells [1]; monoculture, Foxy-5 100 μM): 73.79% | reduced cell growth compared to vehicle treated cells (K562 cells; K562, 2D culture with HS-5 stromal cells): 1.79 fold decrease | reduced cell growth compared to vehicle treated cells (K562 cells; K562, monoculture): 3.12 fold decrease | body weights of the xenograft mice [2]: did not vary significantly | ROS production (MFI) (KG1a cells [3]; Foxy-5 50 μM): 75.03 (range 75.03-77.70) MFI | ROS production (MFI) (KG1a cells [3]; Foxy-5 100 μM): 69.00 (range 68.00-72.00) MFI | ROS production (mean fluorescence intensity) (KG1a cells [3]; Foxy-5 50 μM): 36.30 (range 35.80-36.80) MFI | ROS production (mean fluorescence intensity) (KG1a cells [3]; Foxy-5 100 μM): 29.72 (range 28.10-31.33) MFI | autophagy (acidic granule formation, acridine orange, average) (HL60 cells; Foxy-5 50 μM): 10.04 (range 7.20-11.93) MFI | autophagy (acidic granule formation, acridine orange, average) (HL60 cells; Foxy-5 100 μM): 6.60 (range 5.42-6.69) MFI | PMA-mediated differentiation compared with PMA-stimulated cells treated with vehicle (U937 cells [4]): reduced PMA-mediated differentiation | cells in G0/G1 cell cycle phase (average) (U937 cells [5]; U937, co-cultured with HS5 stromal cells, Foxy-5 50 μM): 77.37% | cells in G0/G1 cell cycle phase (average) (U937 cells [5]; U937, co-cultured with HS5 stromal cells, Foxy-5 100 μM): 91.52% | cells in G0/G1 cell cycle phase (average) (U937 cells [5]; U937, monoculture, Foxy-5 50 μM): 55.07% | cells in G0/G1 cell cycle phase (average) (U937 cells [5]; U937, monoculture, Foxy-5 100 μM): 56.64%

— patent publication US20240226234A1, “WNT5A PEPTIDES FOR THE TREATMENT OF ACUTE M[…]” (W[…], priority 2021, published 2024)
